Source: ChEMBL document CHEMBL1128701 (J Med Chem, 1995)

Target: T1, Progesterone receptor (Homo sapiens, UniProt P06401)
T1 sequence (P06401 whole entry): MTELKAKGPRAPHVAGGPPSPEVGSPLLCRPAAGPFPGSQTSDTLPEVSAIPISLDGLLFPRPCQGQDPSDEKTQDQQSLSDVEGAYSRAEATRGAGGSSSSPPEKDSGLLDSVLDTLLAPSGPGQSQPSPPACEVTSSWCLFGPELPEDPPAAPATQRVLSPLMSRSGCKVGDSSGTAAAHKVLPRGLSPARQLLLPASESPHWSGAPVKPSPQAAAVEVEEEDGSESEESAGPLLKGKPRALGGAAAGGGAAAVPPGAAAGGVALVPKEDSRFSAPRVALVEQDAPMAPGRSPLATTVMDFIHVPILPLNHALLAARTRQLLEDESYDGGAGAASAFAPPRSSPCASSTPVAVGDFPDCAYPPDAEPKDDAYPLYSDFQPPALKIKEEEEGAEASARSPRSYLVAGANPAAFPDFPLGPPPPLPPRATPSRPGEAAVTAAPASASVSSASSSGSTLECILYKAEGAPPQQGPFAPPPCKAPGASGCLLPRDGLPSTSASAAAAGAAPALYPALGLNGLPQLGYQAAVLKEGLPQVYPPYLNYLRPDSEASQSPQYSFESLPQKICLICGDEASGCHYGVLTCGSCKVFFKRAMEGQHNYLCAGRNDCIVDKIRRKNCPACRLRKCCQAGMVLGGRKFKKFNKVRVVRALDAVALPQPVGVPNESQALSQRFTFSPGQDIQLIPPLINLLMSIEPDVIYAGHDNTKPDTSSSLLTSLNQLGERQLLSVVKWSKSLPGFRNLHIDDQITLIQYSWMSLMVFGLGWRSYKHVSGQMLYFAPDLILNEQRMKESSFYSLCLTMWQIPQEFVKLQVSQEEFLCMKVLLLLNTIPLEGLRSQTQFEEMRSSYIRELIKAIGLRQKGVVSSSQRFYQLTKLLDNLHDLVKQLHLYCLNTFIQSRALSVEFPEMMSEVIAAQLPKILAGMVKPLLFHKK
Assay: Binding affinity against Progesterone receptor in human TE85 osteosarcoma cells was determined using (Z)-[125I]-17-alpha-(2-iodovinyl)-19-nor-testosterone as radioligand

SMILES	IC50
O=C(c1ccc(F)c(Br)c1)N1CCCC(c2ccccc2)=N1	38.2 nM
CC(C)(C)c1ccc(C(=O)N2CCCC(c3ccccc3)=N2)cc1	> 1000 nM
O=S(=O)(c1ccc(Cl)c(Cl)c1)N1CCCC(c2ccccc2)=N1	> 1000 nM
O=C1CCC(c2ccccc2)=NN1Cc1ccc(Cl)c(Cl)c1	170 nM
O=C(c1ccc(Cl)c(Cl)c1)N1CC=CC(c2ccccc2)=N1	> 1000 nM
CC1CC(c2ccccc2)=NN(C(=O)c2ccc(Cl)c(Cl)c2)C1 (centres undefined)	98 nM
O=C(c1ccccc1)N1CCCC(c2ccccc2)=N1	> 1000 nM
S=C(c1ccc(Cl)c(Cl)c1)N1CCCC(c2ccccc2)=N1	17.5 nM
CC1CCN(C(=O)c2ccc(Cl)c(Cl)c2)N=C1c1ccccc1 (centres undefined)	24 nM
CC1(C)CC(c2ccccc2)=NN(C(=O)c2ccc(Cl)c(Cl)c2)C1	75.3 nM
O=C(c1ccc(Cl)c(Cl)c1)N1CCCC(c2ccccc2)=N1	62.4 nM
O=C(c1ccc(Br)cc1)N1CCCC(c2ccccc2)=N1	> 1000 nM
Cc1ccc(C(=O)N2CCCC(c3ccccc3)=N2)cc1	416 nM
CCc1ccc(C2=NN(C(=O)c3ccc(Cl)c(Cl)c3)CCC2)cc1	570 nM
O=C(c1ccc(Cl)c(C(F)(F)F)c1)N1CCCC(c2ccccc2)=N1	270 nM
O=C(c1ccc(Cl)c(Cl)c1)N1CCCC(c2ccc(F)cc2)=N1	48.2 nM
COc1ccc(C2=NN(C(=O)c3ccc(Cl)c(Cl)c3)CCC2)cc1	> 1000 nM
O=C(c1ccc(Cl)c(Cl)c1)N1CCCC(c2ccc(Cl)cc2)=N1	84 nM
O=C(c1ccc(F)c(F)c1)N1CCCC(c2ccccc2)=N1	515 nM
O=C(c1ccc(Cl)cc1)N1CCCC(c2ccccc2)=N1	521 nM
COc1ccc(C(=O)N2CCCC(c3ccccc3)=N2)cc1	> 1000 nM
Clc1ccc(CN2CCCC(c3ccccc3)=N2)cc1Cl	> 1000 nM
O=C(c1cccc(Cl)c1)N1CCCC(c2ccccc2)=N1	70.6 nM
CCCCc1ccc(C2=NN(C(=O)c3ccc(Cl)c(Cl)c3)CCC2)cc1	> 1000 nM
